Experimental data: patent US7550469B2, “Heterocyclic amide derivatives and their use as dopamine D3 receptor ligands” (Aventis Pharmaceuticals Inc., priority 2001, dated 2009)

What was measured:
[1] = system: Alpha-1 adrenergic receptors from rat brain cortex; test: [3H]Prazosin binding to alpha-1 adrenergic receptors from rat brain cortex (Protocol 4); settings: for r-α1 % Inh: r = rat, Inh @ 1 μM
Text: [^3H]Prazosin Binding to Alpha-1 Adrenergic Receptors from Rat Brain Cortex
Objective: This in vitro assay is designed as a screen to identify compounds displaying a affinity for the a, adrenoceptor subtype in membranes from rat cortex. It measures the ability of the test compounds to displace [^3H]prazosin from the α1 sites.
Membrane Preparation: Rat brain tissue can be obtained from either fresh (male Wistar rats; 200-250 g) or frozen (male Sprague-Dawley 200-250 g from Harlan; cat. #BT-403) stocks. The cortex is dissected, homogenized in 50 vol (wet weight) ice-cold 50 mM Tris buffer (pH 7.7 at 25° C.). The homogenate is centrifuged at 48,000 g for 10 min, the pellet is resuspended in 50 mM Tris buffer and centrifuged a second time. The second pellet (P2) is resuspended to yield a concentration of 115 mg wet weight per 10 ml. […] Membranes should be mixed just before addition to ensure an even suspension. […] This is diluted to a 0.5 mM stock in dH2O. Serial dilutions in Buffer A are made from which 50 μl additions to the plate are made in duplicate in order to achieve the final concentrations desired. Typically, one 96 well plate is used to evaluate 11 compounds at 4 concentrations (10^−6-10^−9 M) in duplicate. Total binding and nonspecific binding are determined in quadruplicate. Usually one standard is run with each assay. • [^3H]Prazosin is made up in Buffer A such that when 50 μl are added per well the final concentration is […] in a final assay volume of 200 μl. The final concentration should be verified by running a sample in a scintillation counter prior to adding the [^3H]prazosin to the 96 well plate. Note: The radioactivity should be prepared just before the additions are made so that it is not allowed to sit on the bench for very long. • Packard GF/B Plate Pretreatment: The filter plates are presoaked for at least 30 min in ice cold Buffer B containing 0.05% polyethyleneimine (200 μl/200 ml) to maximize filtration efficiency and minimize filter blank binding. • Incubation & Filtration: Once buffer, compounds, [^3H]prazosin and membrane have been added (and mixed), the 96 well plates are incubated for 40 min at 37° C. and spaced 3-5 min apart. At 40 min, the plates are filtered using a Tomtec Automated Cell Harvester. Filtration is immediately followed by washes of ice cold Buffer B (total vol. ˜7 ml). • Drying and Counting: Each filter plate is dried under a heat lamp for 15 min. The back of the plate is sealed and 40 μl of Packard microscint fluid are added per well. Using Packard film, each plate is heat sealed prior to being counted in a Packard Topcount Scintillation counter. A program has been written that counts each plate twice sending DPM, CPM and TSIS data to disk and printer. • Analysis of Results: Raw DPM and CPM data are captured on disk and are imported into one of several software packages (Graphpad Prism Ver 2.0, Excel) residing on the LAN. Specific binding is defined as the difference between total binding and the binding in the presence of 10 μM phentolamine. Total binding is less than 10% of the total added ligand. Software using one-site competition curve analysis is employed in the calculation of IC50 and KI (Cheng-Prusoff equation, 1973). The top and bottom of the non-linear regression are held constant at 0% and 100% inhibition. The percent inhibition at each drug concentration is the mean of duplicate determinations.

[2] = target: T1, human dopamine D3 receptor (Homo sapiens, UniProt P35462); test: Microphysiometer test of functional activity in CHO cells expressing human dopamine D3 receptor (quinpirole-induced acidification rate); type: cell-based; settings: test compound 10 nM, 100 nM, 1 uM; quinpirole 10 nM
T1 construct: expressed in transfected cells; host or cells: CHO cells
Protocol: The functional activity of compounds of the invention (i.e. whether they are antagonists, agonists or partial agonists) can readily be determined using the microphysiometer test method that follows:
Chinese Hamster Ovary (CHO) cells, expressing the human dopamine D3 receptor, were grown on the surface of a capsule cup. Cups are assembled and placed on the microphysiometer, and buffer (Dulbecco's Modified Eagle's Medium without sodium bicarbonate and without serum) is perfused through the cup assembly until a stable baseline is achieved (4 hours). Buffer perfusion rate and solution changes are controlled by a computer. Intracellular acidification rate is measured in each of the 8 cup assemblies and recorded by the computer. Buffer containing test compound (10 nM, 100 nM, and 1 uM) is perfused through the cup assembly for 20 min. Buffer containing quinpirole (10 nM) (a D3 agonist) and test compound (same concentrations) is perfused for an additional 1 min. This is followed by a recovery period of 10-60 min where buffer alone was perfused through the cups. Quinpirole increases the rate of acidification. If the test compound is a D3 antagonist, this increase will be inhibited in a concentration dependent manner.

T1 sequence (P35462 whole entry): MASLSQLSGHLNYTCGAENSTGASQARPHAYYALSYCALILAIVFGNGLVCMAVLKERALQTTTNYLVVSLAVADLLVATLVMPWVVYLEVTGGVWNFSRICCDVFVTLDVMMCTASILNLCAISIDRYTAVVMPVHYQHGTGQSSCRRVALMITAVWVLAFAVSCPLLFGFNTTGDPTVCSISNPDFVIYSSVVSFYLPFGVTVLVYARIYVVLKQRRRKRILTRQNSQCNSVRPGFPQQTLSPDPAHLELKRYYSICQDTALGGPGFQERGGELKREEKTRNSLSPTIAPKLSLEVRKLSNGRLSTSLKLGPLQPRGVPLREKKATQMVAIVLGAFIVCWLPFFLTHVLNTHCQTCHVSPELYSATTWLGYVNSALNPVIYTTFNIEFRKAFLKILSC

r-α1 % Inh [1]	SMILES	other results
14%	O=C(NCCCCN1CCCN(c2csc3cc(F)ccc23)CC1)c1ccc(OC(F)(F)F)cc1 [compound 822152]	
0%	CC(C)(C)c1ccc(C(=O)NCCCCN2CCCN(c3csc4cc(F)ccc34)CC2)cc1 [compound 822198]	

Second part, the molecule before the results:

SMILES	r-α1 % Inh [1]	other results
O=C(NCCCCN1CCN(c2csc3cc(C(F)(F)F)ccc23)CC1)c1cc2ccccc2s1 [814238A]		rat alpha 1 % I ([1]; @ 10 uM): 50% @ 10 uM
CCOc1ccc(C(=O)NCCCCN2CCN(c3csc4cc(C(F)(F)F)ccc34)CC2)cc1 [compound 815541]		functional activity at D3 (inhibition of quinpirole-induced increase of acidification rate) [2]: D3 antagonists
O=C(NCCCCN1CCCN(c2csc3cc(F)ccc23)CC1)c1cccc(F)c1 [compound 822154]	0%	
COc1ccccc1C(=O)NCCCCN1CCCN(c2csc3cc(F)ccc23)CC1 [compound 822157]	41%	
